From patent US20240150377A1, “MODULATORS OF CYSTIC FIBROSIS TRANSMEMBRANE CONDUCTANCE REGULATOR” (VERTEX PHARMACEUTICALS INCORPORATED, priority 2020, published 2024)
Like-named read-outs stand apart in the source and are kept apart here. Values belong to the compound of their own block, whether it stands above or below them.

Biological target: T1, CFTR (Homo sapiens, UniProt P13569, DEL508-508)
T1 construct: endogenous in cells; host or cells: primary human bronchial epithelial cells from CF subjects (F508del/MF-HBE), differentiated at air-liquid interface
T1 sequence (P13569 with tags, fused parts or gaps DEL508-508): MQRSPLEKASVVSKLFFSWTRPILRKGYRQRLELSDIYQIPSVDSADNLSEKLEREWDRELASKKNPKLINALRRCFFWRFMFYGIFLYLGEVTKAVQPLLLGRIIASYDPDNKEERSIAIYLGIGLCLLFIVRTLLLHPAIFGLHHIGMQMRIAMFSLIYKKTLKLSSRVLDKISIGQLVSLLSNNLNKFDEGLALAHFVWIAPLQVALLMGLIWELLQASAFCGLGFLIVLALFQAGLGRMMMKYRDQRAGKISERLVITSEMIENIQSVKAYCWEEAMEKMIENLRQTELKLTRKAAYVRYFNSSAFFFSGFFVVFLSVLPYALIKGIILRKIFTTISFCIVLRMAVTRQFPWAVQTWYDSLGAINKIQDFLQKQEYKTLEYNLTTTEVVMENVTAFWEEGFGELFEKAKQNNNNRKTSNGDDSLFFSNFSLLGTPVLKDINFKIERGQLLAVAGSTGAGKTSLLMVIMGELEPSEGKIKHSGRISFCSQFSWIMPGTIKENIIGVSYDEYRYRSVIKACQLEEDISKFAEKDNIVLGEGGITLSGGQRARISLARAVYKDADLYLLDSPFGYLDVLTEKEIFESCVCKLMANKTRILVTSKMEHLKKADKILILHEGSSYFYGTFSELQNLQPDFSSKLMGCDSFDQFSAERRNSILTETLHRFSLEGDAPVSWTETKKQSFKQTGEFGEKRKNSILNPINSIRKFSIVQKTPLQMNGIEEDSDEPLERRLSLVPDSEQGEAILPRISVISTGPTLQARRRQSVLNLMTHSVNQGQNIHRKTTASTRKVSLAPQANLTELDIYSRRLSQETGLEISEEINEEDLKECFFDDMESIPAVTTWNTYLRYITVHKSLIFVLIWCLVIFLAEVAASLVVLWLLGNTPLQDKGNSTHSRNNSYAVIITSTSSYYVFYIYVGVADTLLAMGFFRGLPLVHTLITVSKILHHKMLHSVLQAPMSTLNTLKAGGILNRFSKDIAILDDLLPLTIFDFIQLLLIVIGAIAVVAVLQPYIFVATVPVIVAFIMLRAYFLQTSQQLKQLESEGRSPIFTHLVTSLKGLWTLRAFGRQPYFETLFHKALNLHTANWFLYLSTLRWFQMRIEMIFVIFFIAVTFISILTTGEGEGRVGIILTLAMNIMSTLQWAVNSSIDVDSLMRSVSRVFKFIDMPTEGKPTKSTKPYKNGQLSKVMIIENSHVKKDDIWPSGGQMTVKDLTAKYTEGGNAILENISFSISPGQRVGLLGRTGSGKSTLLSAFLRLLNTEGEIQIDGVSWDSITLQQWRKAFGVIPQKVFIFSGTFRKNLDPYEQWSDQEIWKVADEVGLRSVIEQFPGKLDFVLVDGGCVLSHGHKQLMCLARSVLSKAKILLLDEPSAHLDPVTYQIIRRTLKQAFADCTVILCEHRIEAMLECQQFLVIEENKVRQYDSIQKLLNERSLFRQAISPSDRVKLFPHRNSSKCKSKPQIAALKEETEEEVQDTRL
Experiment: HBE assay: Ussing chamber assay of CFTR-mediated short-circuit currents
Format: cell-based
Settings: for EC50: read-out: HBE EC50
Procedure, shortened: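 CFTR-mediated Isc (μA/cm²) equals the peak response to apical 20 μM forskolin minus the residual after a 20 μM each BPO/GlyH-101/CFTR inhibitor 172 cocktail, recorded in Ussing chambers at Vhold 0 mV, 37 °C, pH 7.4, with 30 μM apical amiloride. Cells were F508del/MF HBE cultures preincubated 18-24 h with corrector (concentration range or 10 μM) plus 1 μM ivacaftor in 20% human serum.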

[1] = Table 12, at 10 μM, read-out: HBE Activity at 10 μM (%)
[2] = Table 12, read-out: HBE Max Activity (%)
[3] = HBE assay, read-out: HBE Max activity (%)
[4] = Table 10, read-out: HBE Max activity (%)
[5] = Table 11, at 10 μM, read-out: HBE Activity at 10 μM (%)
[6] = Table 13, at 10 μM, read-out: HBE Activity at 10 μM (%)
[7] = Table 13, read-out: HBE Max Activity (%)
[8] = Table 11, read-out: HBE Max Activity (%)
[9] = Table 10, at 10 μM, read-out: HBE activity at 10 (μM) (%)

activation at 10 µM [1]: 30 to 60%
SMILES: Cc1cccc(C)c1-c1cc2nc(n1)NS(=O)(=O)c1cccc(c1)C(=O)N(Cc1cnc(N3CCOCC3)s1)[C@H](CC(C)(C)C)CO2 [Compound 693]

EC50 (Table 12): < 1 µM | Emax [2]: > 60%
SMILES: Cc1cccc(C)c1-c1cc2nc(n1)NS(=O)(=O)c1cccc(c1)C(=O)N(Cc1ncc(OC3CCC3)cn1)[C@H](CC(C)(C)C)CO2 [Compound 558]

EC50 (HBE assay): < 1 µM | Emax [3]: > 60%
SMILES: CCOc1cnc(CN2C(=O)c3cccc(c3)S(=O)(=O)Nc3nc(cc(-c4c(C)cccc4C)n3)OC[C@H]2CC2CCC2)nc1 [Compound 1487]

EC50 (Table 10): < 1 µM | Emax [4]: > 60%
SMILES: Cc1cccc(C)c1-c1cc2nc(n1)NS(=O)(=O)c1cccc(c1)C(=O)N(Cc1cccc(-c3c[nH]nc3C3CC3)c1)[C@H](CC(C)(C)C)CO2 [Compound 308]

activation at 10 µM [5]: > 60%
SMILES: Cc1cccc(C)c1-c1cc2nc(n1)NS(=O)(=O)c1cccc(c1)C(=O)N(CC1CCC(C)(C)O1)[C@H](CC(C)(C)C)CO2 (single isomer, unassigned) [Compound 33]

activation at 10 µM [6]: > 600%
SMILES: Cc1cccc(C)c1-c1cc2nc(n1)NS(=O)(=O)c1cccc(c1)C(=O)N(Cc1cccc(N3CCC[C@H]3C#N)n1)[C@H](CC(C)(C)C)CO2 [Compound 534]

activation at 10 µM [1]: > 600% | EC50 (Table 12): < 1 µM | Emax [2]: < 30%
SMILES: Cc1cccc(C)c1-c1cc2nc(n1)NS(=O)(=O)c1cccc(c1)C(=O)N(Cc1ncc(OC(C)C)cn1)[C@H](C(C)C)CO2 [Compound 696]

EC50 (HBE assay): < 1 µM | Emax [3]: > 60%
SMILES: Cc1cccc(C)c1-c1cc2nc(n1)NS(=O)(=O)c1cccc(c1)C(=O)N(Cc1ncc(OCC3CC3)cn1)[C@H](CC(C)(C)C)CO2 [Compound 1390]

EC50 (HBE assay): < 1 µM | Emax [3]: > 60%
SMILES: COCC(C)Oc1cnc(CN2C(=O)c3cccc(c3)S(=O)(=O)Nc3nc(cc(-c4c(C)cccc4C)n3)OC[C@H]2CC(C)(C)C)nc1 (stereo partly shown) [Compound 1344]

EC50 (HBE assay): < 1 µM | Emax [3]: > 60%
SMILES: Cc1cccc(C)c1-c1cc2nc(n1)NS(=O)(=O)c1cccc(c1)C(=O)N(Cc1cccc(NC3CCOCC3)n1)[C@H](CC(C)(C)C)CO2 [Compound 1419]

EC50 (HBE assay): < 1 µM | Emax [3]: > 60%
SMILES: Cc1cccc(C)c1-c1cc2nc(n1)NS(=O)(=O)c1cccc(c1)C(=O)N(Cc1ncc(N3CC[C@@](C)(F)C3)cn1)[C@H](CC(C)(C)C)CO2 [Compound 1441]

EC50 (Table 12): < 1 µM | Emax [2]: > 60%
SMILES: Cc1cccc(C)c1-c1cc2nc(n1)NS(=O)(=O)c1cccc(c1)C(=O)N(Cc1nc(N(C)C)cc(N(C)C)n1)[C@H](CC(C)(C)C)CO2 [Compound 322]

EC50 (Table 12): < 1 µM | Emax [2]: > 60%
SMILES: Cc1cccc(C)c1-c1cc2nc(n1)NS(=O)(=O)c1cccc(c1)C(=O)N(Cc1ncc(N3CCC(C)(C)CC3)cn1)[C@H](CC1CC1)CO2 [Compound 462]

activation at 10 µM [6]: > 600% | EC50 (Table 13): < 1 µM | Emax [7]: > 60%
SMILES: COC1(C)CCN(c2cnc(CN3C(=O)c4cccc(c4)S(=O)(=O)Nc4nc(cc(-c5c(C)cccc5C)n4)OC[C@H]3CC(C)(C)C)nc2)CC1 [Compound 870]

EC50 (Table 11): 3 to 30 µM | Emax [8]: > 60%
SMILES: Cc1cccc(C)c1-c1cc2nc(n1)NS(=O)(=O)c1cccc(c1)C(=O)N(Cc1ncc(N3C[C@H](C)C[C@@H](C)C3)cn1)[C@H](CC(C)(C)C)CO2 [Compound 716]

EC50 (Table 13): < 1 µM | Emax [7]: > 60%
SMILES: Cc1cccc(C)c1-c1cc2nc(n1)NS(=O)(=O)c1cccc(c1)C(=O)N(Cc1ccc(N3CC4(CCOCC4)C3)cn1)[C@H](CC(C)(C)C)CO2 [Compound 1060]

EC50 (Table 10): < 1 µM | Emax [4]: > 60%
SMILES: Cc1cccc(C)c1-c1cc2nc(n1)NS(=O)(=O)c1cccc(c1)C(=O)N(CC1CCC(N3CCOCC3)CC1)[C@H](CC(C)(C)C)CO2 (single isomer, unassigned) [Compound 154]

EC50 (Table 11): < 1 µM | Emax [8]: > 60%
SMILES: Cc1cccc(C)c1-c1cc2nc(n1)NS(=O)(=O)c1cccc(c1)C(=O)N(Cc1ccnc(N(C)CC(C)(C)C)n1)[C@H](CC(C)(C)C)CO2 [Compound 601]

activation at 10 µM [6]: > 600%
SMILES: CCC1CCC(NC(=O)CN2C(=O)c3cccc(c3)S(=O)(=O)Nc3nc(cc(-c4c(C)cccc4C)n3)OC[C@H]2CC(C)(C)C)CC1 (stereo partly shown) [Compound 192]

EC50 (Table 11): 1 to 3 µM | Emax [8]: > 60%
SMILES: COCCN1CCCC(CN2C(=O)c3cccc(c3)S(=O)(=O)Nc3nc(cc(-c4c(C)cccc4C)n3)OC[C@H]2CC(C)(C)C)C1=O (stereo partly shown) [Compound 641]

HBE Max activity (%) (HBE assay): +++ (+++ is >60+) | EC50 (HBE assay): < 1 µM
SMILES: Cc1cccc(C)c1-c1cc2nc(n1)NS(=O)(=O)c1cccc(c1)C(=O)N(Cc1cccc(N(CC3CCCO3)C(C)C)n1)[C@H](CC(C)(C)C)CO2 (stereo partly shown) [Compound 1446]

EC50 (Table 10): < 1 µM | Emax [4]: > 60%
SMILES: Cc1ccc(CN2C(=O)c3cccc(c3)S(=O)(=O)Nc3nc(cc(-c4c(C)cccc4C)n3)OC[C@H]2CC(C)(C)C)nc1 [Compound 500]

EC50 (Table 11): < 1 µM | Emax [8]: > 60%
SMILES: Cc1cccc(C)c1-c1cc2nc(n1)NS(=O)(=O)c1cccc(c1)C(=O)N(Cc1cccc(N3CCCC3)n1)[C@H](CC(C)(C)C)CO2 [Compound 630]

SMILES: COCC1CCCN1c1cccc(CN2C(=O)c3cccc(c3)S(=O)(=O)Nc3nc(cc(-c4c(C)cccc4C)n3)OC[C@H]2CC(C)(C)C)n1 (stereo partly drawn) [Compound 129, (11R)-6-(2,6-Dimethylphenyl)-11-(2,2-dimethylpropyl)-12-[[6-[2-(methoxymethyl)pyrrolidin-1-yl]-2-pyridyl]methyl]-2,2-dioxo-9-oxa-2λ^6-thia-3,5,12,19-tetrazatricyclo[12.3.1.14,8]nonadeca-1(18),4(19),5,7,14,16-hexaen-13-one]
EC50 (Table 10): < 1 µM | activation at 10 µM (read-out: HBE Activity at 10 μM (%)): > 60% | Emax (read-out: HBE Max activity (%)): > 60%

EC50 (Table 13): 1 to 3 µM | Emax [7]: > 60%
SMILES: Cc1cccc(C)c1-c1cc2nc(n1)NS(=O)(=O)c1cccc(c1)C(=O)N(Cc1ccc(C3CC4(CCC4)C3)cn1)[C@H](CC(C)(C)C)CO2 [Compound 163]

EC50 (Table 10): < 1 µM | Emax [4]: > 60%
SMILES: Cc1cccc(C)c1-c1cc2nc(n1)NS(=O)(=O)c1cccc(c1)C(=O)N(Cc1cccc(N3CCCCC3)n1)[C@H](CC(C)(C)C)CO2 [Compound 489]

EC50 (Table 12): < 1 µM | Emax [2]: > 60%
SMILES: Cc1cccc(C)c1-c1cc2nc(n1)NS(=O)(=O)c1cccc(c1)C(=O)N(Cc1cccc(CC(C)C)n1)[C@H](CC(C)(C)C)CO2 [Compound 583]

activation at 10 µM [9]: > 60%
SMILES: CC(C)c1cccc(C(C)C)c1-c1cc2nc(n1)NS(=O)(=O)c1cccc(c1)C(=O)N(Cc1ccc(N3CCCCC3)cn1)[C@H](CC(C)(C)C)CO2 [Compound 829]

EC50 (Table 12): 3 to 30 µM | Emax [2]: > 60%
SMILES: Cc1cccc(C)c1-c1cc2nc(n1)NS(=O)(=O)c1cccc(c1)C(=O)N(CC(=O)O)[C@H](CC(C)(C)C)CO2 [Compound 453]

EC50 (Table 11): < 1 µM | Emax [8]: > 60%
SMILES: Cc1cccc(C)c1-c1cc2nc(n1)NS(=O)(=O)c1cccc(c1)C(=O)N(Cc1cc(CO)ccn1)[C@H](CC(C)(C)C)CO2 [Compound 811]

EC50 (Table 12): < 1 µM | Emax [2]: 30 to 60%
SMILES: Cc1cccc(C)c1-c1cc2nc(n1)NS(=O)(=O)c1cccc(c1)C(=O)N(Cc1cccc(N3CC(C)(C)CC3(C)C)n1)[C@H](CC(C)(C)C)CO2 [Compound 597]

EC50 (Table 10): < 1 µM | Emax [4]: > 60%
SMILES: Cc1cccc(C)c1-c1cc2nc(n1)NS(=O)(=O)c1cccc(c1)C(=O)N(Cc1ccccc1-c1c(C)n[nH]c1C)[C@H](CC(C)(C)C)CO2 [Compound 306]

Emax [4]: > 60%
SMILES: Cc1cccc(C)c1-c1cc2nc(n1)NS(=O)(=O)c1cccc(c1)C(=O)N(Cc1cccc(OCC(C)(C)C)n1)[C@H](CC(C)(C)C)CO2 [Compound 469]

EC50 (Table 11): < 1 µM | Emax [8]: > 60%
SMILES: CCOc1ccc(CN2C(=O)c3cccc(c3)S(=O)(=O)Nc3nc(cc(-c4c(C)cccc4C)n3)OC[C@H]2CC(C)(C)C)nc1 [Compound 745]

EC50 (Table 12): < 1 µM | Emax [2]: 30 to 60%
SMILES: Cc1cccc(C)c1-c1cc2nc(n1)NS(=O)(=O)c1cccc(c1)C(=O)N(Cc1ccc(N3CCC(C)(C)C3)nn1)[C@H](CC(C)(C)C)CO2 [Compound 238]

activation at 10 µM [1]: > 600%
SMILES: Cc1cc(N(C)C(C)C)nc(CN2C(=O)c3cccc(c3)S(=O)(=O)Nc3nc(cc(-c4c(C)cccc4C)n3)OC[C@H]2CC(C)(C)C)n1 [Compound 323]

EC50 (Table 11): < 1 µM | Emax [8]: > 60%
SMILES: Cc1cccc(C)c1-c1cc2nc(n1)NS(=O)(=O)c1cccc(c1)C(=O)N(CC1CN(CC(C)(C)C)CCO1)[C@H](CC(C)(C)C)CO2 (stereo partly shown) [Compound 712]

activation at 10 µM [9]: > 60% | EC50 (Table 10): < 1 µM | Emax [4]: > 60%
SMILES: Cc1cccc(C)c1-c1cc2nc(n1)NS(=O)(=O)c1cccc(c1)C(=O)N(Cc1ncccc1-c1cn[nH]c1)[C@H](CC(C)(C)C)CO2 [Compound 53, (11R)-6-(2,6-Dimethylphenyl)-11-(2,2-dimethylpropyl)-2,2-dioxo-12-[[3-(1H-pyrazol-4-yl)-2-pyridyl]methyl]-9-oxa-2λ^6-thia-3,5,12,19-tetrazatricyclo[12.3.1.14,8]nonadeca-1(18),4(19),5,7,14,16-hexaen-13-one]

EC50 (HBE assay): < 1 µM | Emax [3]: > 60%
SMILES: Cc1cccc(C)c1-c1cc2nc(n1)NS(=O)(=O)c1cccc(c1)C(=O)N(Cc1ccnc(N3CCC[C@H]3C)n1)[C@H](CC(C)(C)C)CO2 [Compound 1449]

activation at 10 µM [5]: < 30%
SMILES: Cc1cccc(C)c1-c1cc2nc(n1)NS(=O)(=O)c1cccc(c1)C(=O)N(Cc1cc3ccccn3n1)[C@H](CC(C)(C)C)CO2 [Compound 743]
